Assay [1] addresses muscarinic binding site. The assay is described as follows: RCMD screening assay: inhibition of binding of radiolabeled cis-methyldioxolane (muscarinic agonist) to rat cerebral cortex tissue. Particulars: read-out: IC₅nM RCMD. How it is done: Similarly, in the RCMD screening assay, described more fully by T. W. Vickeroy, et al, 229(3):747 (1984), rat cerebral cortex tissue was treated with radiolabeled cis-methyldioxolane, a known muscarinic binding site agonist. The concentrations of test compounds required to inhibit 50% of the binding of this muscarinic agonist were then determined. […]

Assay [2] deals with muscarinic binding site. Particulars: rat cerebral cortex tissue, radiolabeled quinuclidinyl benzilate, read-out: IC₅₀nM RQNB.

This passage reports IC50 results from patent EP0445731B1 (priority 1990, dated 1991).

pIC50: −log10 of the molar value. Counter-ions that a name gives are not always drawn. Like-named read-outs stand apart in the source and are kept apart here.

With `C=CC=CCON=C1CN2CCC1C2` (single isomer, unassigned) [28 (Isomer A), 1-Azabicyclo[2.2.1]-heptan-3-one, O-(2,4-pentadienyl)oxime hydrochloride], the pIC50 was 7.89 in assay [1] (hydrochloride) and 6.36 in assay [2] (hydrochloride).
On the same counts, the results for `C=CC=CCON=C1CN2CCC1C2` (single isomer, unassigned) [28 (Isomer B), 1-Azabicyclo[2.2.1]-heptan-3-one, O-(2,4-pentadienyl)oxime hydrochloride] are 6.59 and 5.02.
As for `CCON=C1CN2CCC1C2` (centres unmarked) [Example 2, 1-Azabicyclo[2.2.1]hept-3-one, O-ethyloxime hydrochloride], the results for the pIC50 in assay [1] and in assay [2] were 7.90 and 5.51, respectively.
On the same counts, the results for `CON=C1CN2CCC1C2` (centres unmarked) [Example 3, 1-Azabicyclo[2.2.1]heptan-3-one, O-methyloxime hydrochloride] are 7.74 and 4.61.
On the same counts, the results for `C#CCON=C1CN2CCC1C2` (centres unmarked) [Example 4, 1-Azabicyclo[2.2.1]-heptan-3-one, O-(2-propynyl)oxime hydrochloride] are 8.46 and 5.53.
On the same counts, the results for `c1ccc(CON=C2CN3CCC2C3)cc1` (centres unmarked) [Example 5, 1-Azabicyclo[2.2.1]-heptan-3-one, O-(phenylmethyl)oxime hydrochloride] are 6.88 and 5.23.
Turning to `CCCON=C1CN2CCC1C2` (centres unmarked) [Example 6, 1-Azabicyclo[2.2.1]-heptan-3-one, O-propyloxime hydrochloride], the pIC50 in assay [1] was 6.92; in assay [2] it was 5.41.
On the same counts, the results for `CC(C)ON=C1CN2CCC1C2` (centres unmarked) [Example 7, 1-Azabicyclo[2.2.1]-heptan-3-one, O-(1-methylethyl)oxime hydrochloride] are 7.34 and 5.69.
For `C=CCON=C1CN2CCC1C2` (centres unmarked) [Example 8, 1-Azabicyclo[2.2.1]-heptan-3-one, O-(2-propenyl)oxime oxalate], the pIC50 in assay [1] was 7.28; in assay [2] it was 5.32.
Consider `N#CCON=C1CN2CCC1C2` (centres unmarked) [Example 27, {[(1-Azabicyclo[2.2.1]-heptan-3-ylidene)amino]-oxy}acetonitrile hydrochloride], for which the pIC50 is 6.94 in assay [1] and 5.05 in assay [2].
